Entries after “also recorded” stand apart in the source; their conditions may differ.
Key:
P-glycoprotein (P-gp) = biological target: T1, P-glycoprotein (P-gp) (Homo sapiens, UniProt P08183); experiment: P-gp inhibitor and inducer experiments on Caco-2 cell monolayer; format: in vitro ADME; settings: for interaction with P-gp: Caco-2 cell monolayer
T1 construct: host or cells: Caco-2 (human colon adenocarcinoma) monolayers, passages 24-35
Procedure: The final concentration of GQD, GQD−GC, and Huang-Lian water extracts were 32, 28, and 6 μg/mL, respectively. […]
containing glucose (25 mM) and HEPES (10 mM). The final concentration of berberine was 5 µM. The final concentration of DMSO was below 1% (v/v). […]
inducer of Caco-2 cells, respectively. For the inhibitor experiments, the Caco-2 cells were cultivated in DMEM until the 21st day. After removal of the medium, the cells were incubated for 30 minutes with HBSS containing 5 µM of verapamil. For the inducer experiments, the cells were cultivated in DMEM until the 18th day, and then […]
was removed on the 21st day, and the cells were then incubated for 30 min with HBSS.
Berberine and glycyrrhizic acid were added to the system following HBSS incubation.
For all bidirectional transport assays, samples (300 µL) were collected after 30, 60, 90, […]
with an equal volume of HBSS. The samples were freeze-dried and then dissolved in 300 µL of methanol. The solutions were filtered through 0.22-µm membranes before […]
3. Inhibitor and inducer experiments […]
respectively. For the inhibition experiments, Caco-2 cells were cultivated in DMEM until the 21st day. After removal of the medium, the cells were incubated for 30 minutes with HBSS containing verapamil (5 µM). For induction experiments, the cells were cultivated in DMEM until the 18th day, and then cultivated in DMEM […]
The medium was removed on the 21st day, and the cells were then incubated for 30 min with HBSS. Berberine and glycyrrhizic acid were added to the system following HBSS incubation.

db/db mice = experiment: Evaluation of anti-diabetic effects in db/db mice; format: in vivo; settings: oral, 4 weeks; for anti-diabetic effects: BER 50 mg/kg/d, GLY 80 mg/kg/d alone, 50 or 80 mg/kg/d with BER
Procedure: Eight-week-old male db/db mice (30–35 g) were used, and the details were described in Supplemental Data. The mice were randomly divided into eight groups. Mice were orally administered with metformin (100 mg/kg/d, n = 6), berberine (50 mg/kg/d, n = 6), glycyrrhizic acid (80 mg/kg/d, n = 6), berberine (50 mg/kg/d) combined with low-dose of glycyrrhizic acid (50 mg/kg/d, n = 6), berberine (50 mg/kg/d) combined with high-dose of glycyrrhizic acid (80 mg/kg/d, n = 6), berberine (50 mg/kg/d) combined with Gan-Cao (2.2 g/kg/d, n = 7), and GQD (18.2 g/kg/d, n = 7) for 4 weeks. For the control group, the […] were administered with an equal volume of water. On day 28, after fasted for 12 h, retro-orbital blood samples were collected, stand for 1 h, and then centrifuged (6,000 rpm, 4°C) for 20 min to obtain serum. Biochemical indicators such as blood glucose and insulin were determined on a Mindray BS-800 analyzer (Mindray Bio-Medical Electronics Co.).
Herbal materials and extracts.
The four component herbs, Puerariae Lobatae Radix (Ge-Gen, GG), Scutellariae Radix (Huang-Qin, HQ), Coptidis Rhizoma (Huang-Lian, HL), and Glycyrrhizae Radix et Rhizoma Praeparata cum Melle (Gan-Cao, GC) were purchased from Tianheng Pharmacy. GQD was prepared by decocting the four component herbs […]
of water for three times (1.5 h, 1.5 h, 0.5 h) to obtain the extracts, followed by a pre-extraction of Ge-Gen using 200 mL of water for 0.5 h. The decoctions were combined, filtered, and concentrated in vacuum at 50 °C. GQD-GC was prepared using the same procedure, except that Gan-Cao was removed from the formula. Final concentration of the GQD-GC extract was equivalent to 1.0 g of the crude drugs per mL. For single herb extracts, the herbs were decocted in 8-fold volume of water for three times (1.5 h, 1.5 h, 0.5 h) and then concentrated. […]
For anti-diabetic study, Eight-week-old male db/db mice (30–35 g) were purchased from Card Vince Laboratory animal Co., Ltd. The mice were bred in a cage (318 × 202 × 135 mm) in a breeding room at 25 °C, 60 ± 5% humidity, and a 12-h dark-light […]
On day 28, db/db mice were fasted for 12 h, and blood was collected and centrifuged to obtain serum for insulin and biochemical tests. After that, 150 µL of plasma was prepared by adding 150 µL of internal standard solution, 150 µL of methanol, and 300 µL of acetonitrile. The processing method was consistent with sample preparation for […]
3.1. Optimization of chromatographic separation
Different solvents (67% methanol, and 100% methanol) were compared to effectively extract both hydrophilic and hydrophobic compounds of GQD. […]
better extraction recovery for most compounds. […]

T1 sequence (P08183 whole entry): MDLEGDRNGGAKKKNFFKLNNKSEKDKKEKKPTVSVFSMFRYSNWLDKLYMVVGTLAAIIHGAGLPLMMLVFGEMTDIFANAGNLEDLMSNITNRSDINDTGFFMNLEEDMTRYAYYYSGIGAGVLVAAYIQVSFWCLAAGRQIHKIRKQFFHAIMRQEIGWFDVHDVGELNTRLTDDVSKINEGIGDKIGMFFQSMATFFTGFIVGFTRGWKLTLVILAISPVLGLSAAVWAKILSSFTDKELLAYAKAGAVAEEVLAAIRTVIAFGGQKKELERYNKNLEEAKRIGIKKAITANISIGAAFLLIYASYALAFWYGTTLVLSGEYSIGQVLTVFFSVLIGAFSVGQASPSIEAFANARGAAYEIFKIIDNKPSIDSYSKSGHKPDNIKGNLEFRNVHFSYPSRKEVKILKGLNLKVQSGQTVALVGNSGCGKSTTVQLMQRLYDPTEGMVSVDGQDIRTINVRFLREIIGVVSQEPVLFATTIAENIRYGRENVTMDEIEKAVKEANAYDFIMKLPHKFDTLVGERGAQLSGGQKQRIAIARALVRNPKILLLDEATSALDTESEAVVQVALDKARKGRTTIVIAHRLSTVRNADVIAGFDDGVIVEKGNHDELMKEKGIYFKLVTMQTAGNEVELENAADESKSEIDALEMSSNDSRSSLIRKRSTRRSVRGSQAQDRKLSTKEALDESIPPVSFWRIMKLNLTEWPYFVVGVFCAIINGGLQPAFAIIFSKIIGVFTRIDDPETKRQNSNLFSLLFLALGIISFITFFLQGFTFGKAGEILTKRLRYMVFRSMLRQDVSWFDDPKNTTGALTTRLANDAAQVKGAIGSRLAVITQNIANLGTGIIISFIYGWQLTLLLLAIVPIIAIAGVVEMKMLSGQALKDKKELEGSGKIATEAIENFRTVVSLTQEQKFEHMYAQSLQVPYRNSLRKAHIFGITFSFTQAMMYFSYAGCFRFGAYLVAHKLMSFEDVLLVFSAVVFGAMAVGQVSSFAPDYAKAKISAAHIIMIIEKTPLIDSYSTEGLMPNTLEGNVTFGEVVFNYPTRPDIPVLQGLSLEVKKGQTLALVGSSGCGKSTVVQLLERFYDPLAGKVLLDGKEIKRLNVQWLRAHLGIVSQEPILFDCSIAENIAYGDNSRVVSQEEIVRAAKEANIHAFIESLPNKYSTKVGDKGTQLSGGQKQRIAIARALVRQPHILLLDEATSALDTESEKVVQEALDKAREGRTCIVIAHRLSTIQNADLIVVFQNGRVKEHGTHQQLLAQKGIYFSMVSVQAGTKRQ

`COc1ccc2cc3[n+](cc2c1OC)CCc1cc2c(cc1-3)OCO2` [Compound 24, berberine] was tested, and the “interaction with P-gp” value (P-glycoprotein (P-gp)) was “P-gp substrate”, the anti-diabetic effects (db/db mice; listed as BER) was “confirmed its anti-diabetic activities; also recorded: significant anti-diabetic and hypolipidemic activities” and the “ALT and AST levels (liver damage)” value (db/db mice; serum) was “decreasing”.

`CC1(C)[C@@H](O[C@H]2O[C@H](C(=O)O)[C@@H](O)[C@H](O)[C@H]2O[C@@H]2O[C@H](C(=O)O)[C@@H](O)[C@H](O)[C@H]2O)CC[C@]2(C)[C@H]3C(=O)C=C4[C@@H]5C[C@@](C)(C(=O)O)CC[C@]5(C)CC[C@@]4(C)[C@]3(C)CC[C@@H]12` [Compound 36, glycyrrhizic acid] was tested, and the “interaction with P-gp” value (P-glycoprotein (P-gp); listed as GLY) was “inhibiting P-glycoprotein; also recorded: P-gp inhibitor”, the “counteraction of the impact of rifampicin on BER transport” value (P-glycoprotein (P-gp); GLY 5 μM, especially after 150 min treatment) was “could counteract the impact of 5 or 20, but not 50 μM rifampicin” and the anti-diabetic effects (db/db mice; listed as GLY) was “did not show observable anti-diabetic effects”.

— publication PMC6018403 (Frontiers in Pharmacology, 2018)
